Experimental data published in US10894817B2, “Fatty acid modified urocortin-2 analogs for the treatment of diabetes and chronic kidney disease” (priority 2016, dated 2021).
pEC50: −log10 of the molar value. Several values for one entry are separate records, joined by “and”; a condition that tells them apart may be missing. Equal entries are not always repeated. Starred links: 1 amine or outer side, 2 acyl side, 3 side chain; linkers in the order of their positions; H or OH if unused. Non-standard residues stand in square brackets, D forms with d. Residues, ends and D or L forms follow the SMILES beside them. Groups on a side chain read outwards from the residue. *: point of attachment. C20 diacid = O=C(O)CCCCCCCCCCCCCCCCCCC(=O)*; γGlu = O=C(O)[C@H](CCC(=O)[*:2])N[*:1]; NMeI = CC[C@H](C)[C@H](NC)C(=O)O; AEEA = NCCOCCOCC(=O)O

Key:
[1] = target: T1, human CRHR1 (Homo sapiens, UniProt P34998); assay: human CRHR1 cell-based cAMP assay (Y79 cells); conditions: Y79 cells with endogenous human CRHR1, mean ± SEM of runs, read-out: hCRHR1 Average EC50
T1 construct: which expresses endogenous human CRHR1; host or cells: Y79 human retinoblastoma cells
T1 sequence (P34998 24-415): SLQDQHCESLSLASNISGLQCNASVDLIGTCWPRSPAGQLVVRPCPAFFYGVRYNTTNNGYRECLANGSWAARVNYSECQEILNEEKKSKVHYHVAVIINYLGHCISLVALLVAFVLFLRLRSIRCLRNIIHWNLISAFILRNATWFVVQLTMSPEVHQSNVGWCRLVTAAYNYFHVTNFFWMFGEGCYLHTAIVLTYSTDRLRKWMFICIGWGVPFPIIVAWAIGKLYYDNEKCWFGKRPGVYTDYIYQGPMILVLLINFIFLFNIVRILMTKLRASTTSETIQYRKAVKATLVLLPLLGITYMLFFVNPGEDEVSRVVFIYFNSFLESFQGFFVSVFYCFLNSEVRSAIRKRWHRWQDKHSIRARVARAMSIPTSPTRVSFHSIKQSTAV
Experimental: CRHR agonistic activity is measured in a cell-based cAMP assay. Serial dilutions of the test peptides are made in assay buffer containing Hank's Balanced Salt Solution (HBSS, without phenol red) supplemented with 20 mM HEPES and 0.05% lactalbumin enzymatic hydrolysate (LAH) (“assay buffer”). The highest concentration that is used starts from 1 μM in the human CRHR2b, whereas 100 μM starting concentration is used in the human CRHR1 assay. A one to three dilution of the test peptides is used in both assays.
The human Retinoblastoma cell line Y79 (ATCC #HTB-18), which expresses endogenous human CRHR1, is used in the human CRHR1 assay. The cells are grown in RPMI 1640 (Hyclone, #SH30255) containing 20% fetal bovine serum and 10 mM HEPES, in suspension culture. Cells are centrifuged to remove the culture media and washed once in HBSS supplemented with 20 mM HEPES. The cells are resuspended in the assay buffer and 20,000 cells are used per treatment in the human CRHR1 assay.
The cells are dispensed into Costar 96-well black polystyrene half area EIA/RIA plates (Corning Incorporated, Corning, N.Y.) followed by the addition of the diluted peptides, each at a volume of 20 μL. The agonist induced cAMP levels are detected using a HTRF cAMP Dynamic 2 kit (CisBio, Bedford, Mass.). After incubation at 37° C. for 30 min, the assay is stopped by cell lysis via the addition of 20 μL of d2-labeled cAMP and followed by 20 μL of cryptate-labeled anti-cAMP antibody, as described by the manufacturer. Cellular cAMP (as a result of agonist stimulation) competes with the d2-labeled cAMP for binding to the antibody. HTRF detection is performed on an Envision plate reader (Perkin Elmer Life and Analytical Sciences, Waltham, Mass.) by measuring ratiometric emission at 620 and 665 nm after excitation at 320 nm.
The data are converted to picomoles of cAMP using a standard curve obtained from the same assay performed with varying concentrations of unlabeled cAMP. Percent of the maximum activation of the cells is calculated using converted picomole cAMP data by comparing to the amount of cAMP produced by 1 μM human UCN2 for the human CRHR2b or 1 μM human UCN1 for the human CRHR1 assay. The data are analyzed using a Curve Fitting Tool to calculate ED50. Numeric values shown below in Table 1 represent the mean of multiple runs (number of runs shown in parentheses) following the mean value±SEM.

[2] = tested on: remnant kidney mice; assay: Mouse remnant kidney model of hypertensive nephropathy (Example 4, 8 weeks); type: in vivo; conditions: 2.6 nmol/kg dose group
Experimental: A mouse remnant kidney model (“remnant”) involving surgical reduction of ¾ of the entire renal mass is used as a preclinical model of hypertensive renal disease (Kidney Int. 64(1):350-5, (2003)).
Surgical reduction of renal mass (N=32 mice) (obtained by Taconic, Inc.) is performed by Taconic, Inc. in male 129S6 mice at 9-10 weeks of age. Randomization into 4 equivalent groups of 8 remnant kidney mice is done at 17 weeks post-surgery by urine albumin to creatinine ratio (ACR) and body weight. […]
Body weight is determined at baseline and at termination with a Metler Toledo Balance.
The heart and kidney are removed at necropsy and weighed on a Metler Toledo Balance. […] Serum is analyzed for creatinine on a Roche Hitachi Modular Analytics P analyzer with reagents from Roche. […]
Urine albumin and creatinine are determined on a Roche Hitachi Modular Analytics P analyzer. Urine creatinine is determined with the Creatinine Plus reagent by Roche. […]
Remnant kidneys are removed at study termination, fixed in formalin and processed for paraffin sectioning according to standard methodology. Sections of kidney are evaluated for renal lesions by a board certified pathologist. […]
Pathology data are statistically evaluated with R software by fitting an ordered logit model to the categorical scores, and then comparing the differences between different treatment groups. […]

[3] = Pharmacokinetics, single subcutaneous dose, monkeys
Experimental: Plasma concentrations of compounds were determined by LC/MS methods. Each method measured the intact compound; peptide plus linked time extension. For each assay, the compound and an analog, used as an internal standard (IS), were extracted from 100% mouse, rat or monkey plasma (25 μl) using acetonitrile. Two distinct layers were formed upon centrifugation with the compound and the IS located in the supernatant layer. An aliquot of the supernatant (80 μl) was transferred to a Thermo Protein Precipitation Plate with water (150 μl) and formic acid (25 μl) followed by mixing. A final 31% acetonitrile in 10% formic acid sample (10 μl) was loaded onto a Supelco Analytical Discovery BIO Wide Pore C5-3 column (5 cm×1 mm, 3 μm). The column effluent was directed into a Thermo Q-Exactive mass spectrometer for detection and quantitation.
Male Cynomolgus monkeys were administered a single subcutaneous dose or intravenous dose (96.4 nmol/kg) of a compound described herein in 20 mM Tris-HCl Buffer (pH 7) at a volume of 1 mL/kg. Blood was collected from each animal at 2, 6, 24, 48, 72, 96, 168, 240, 336, 408, and 504 hours postdose for pharmacokinetic characterization.
Male Cynomolgus monkeys were also administered a single subcutaneous dose (50 nmol/kg) of a compound described herein in 20 mM Tris-HCl Buffer (pH 8) at a volume of 0.26 mL/kg. Blood was collected from each animal at 3, 6, 12, 24, 48, 72, 96, 120, 168, 192, 240, 336, 408, and 504 hours postdose for pharmacokinetic characterization.

[4] = male Cynomolgus monkeys, single 50 nmol/kg s.c., individual animal
[5] = male, cynomolgus monkey, plasma, sc, 50 nmol/kg

In the case of `CC[C@H](C)[C@H](NC)C(=O)N[C@H](C(=O)N[C@@H](CC(C)C)C(=O)N[C@@H](CO)C(=O)N[C@@H](CC(C)C)C(=O)N[C@@H](CC(=O)O)C(=O)N[C@H](C(=O)N1CCC[C@H]1C(=O)N[C@H](C(=O)NCC(=O)N[C@@H](CC(C)C)C(=O)N[C@@H](CC(C)C)C(=O)N[C@@H](CCC(N)=O)C(=O)N[C@H](C(=O)N[C@@H](CC(C)C)C(=O)N[C@@H](CC(C)C)C(=O)N[C@@H](CCC(=O)O)C(=O)N[C@@H](CCC(N)=O)C(=O)N[C@@H](CCC(=O)O)C(=O)N[C@@H](CCCCN)C(=O)N[C@@H](CCC(N)=O)C(=O)N[C@@H](CCC(=O)O)C(=O)N[C@@H](CCCCN)C(=O)N[C@@H](CCC(=O)O)C(=O)N[C@@H](CCCCN)C(=O)N[C@@H](CCC(N)=O)C(=O)N[C@@H](CCC(N)=O)C(=O)N[C@@H](C)C(=O)N[C@@H](CCCCNC(=O)COCCOCCNC(=O)COCCOCCNC(=O)CC[C@H](NC(=O)CC[C@H](NC(=O)CCCCCCCCCCCCCCCCCCC(=O)O)C(=O)O)C(=O)O)C(=O)N[C@H](C(=O)N[C@@H](CC(N)=O)C(=O)N[C@@H](C)C(=O)N[C@@H](CCC(N)=O)C(=O)N[C@H](C(=O)N[C@@H](CC(C)C)C(=O)N[C@@H](C)C(=O)N[C@@H](CCC(N)=O)C(=O)N[C@H](C(N)=O)C(C)C)[C@@H](C)CC)[C@@H](C)O)[C@@H](C)CC)[C@@H](C)CC)C(C)C)C(C)C` [Example 4] (H-[NMeI]VLSLDVPIGLLQILLEQEKQEKEKQQAK([AEEA-AEEA-γGlu-γGlu-C20 diacid])TNAQILAQV-NH2), the pEC50 [1] was < 4.00, the “deaths during the study” value [2] was “one” and the AUC(0-inf) [3, 4] was 51.829 µM·h and 46.654 µM·h. For the same molecule, the Cmax [3, 4] was 333 nM and 291 nM, the AUC(0-inf) [3, 5] was 49.2 µM·h and the Cmax [3, 5] was 312 nM. It also gave a Tmax ([3]; male, cynomolgus monkey, plasma, sc, 50 nmol/kg, male Cynomolgus monkeys, single 50 nmol/kg s.c., Mean) of 36 h and a Tmax ([3]; male, cynomolgus monkey, plasma, sc, 50 nmol/kg, male Cynomolgus monkeys, single 50 nmol/kg s.c., individual animal) of 48 h.
